# Assay results as given in US12503438B2, “Compounds for the treatment of kinase-dependent disorders” (Exelixis, Inc., priority 2019, dated 2025).
# Tests used:
# Human Mer = target: T1, Human Mer (Homo sapiens, UniProt Q12866); experiment: Human Mer kinase assay (33P-phosphoryl transfer radiometric, KinaseProfiler); settings: biochemical activity; 10 μM ATP
# T1 construct: Human Mer (residues R557-E882 with H628Q and R794A, 0.7 nM); purchased Eurofins Pharma Discovery Services UK Limited (KinaseProfiler service)
# T1 sequence (Q12866 557-882 limits assumed): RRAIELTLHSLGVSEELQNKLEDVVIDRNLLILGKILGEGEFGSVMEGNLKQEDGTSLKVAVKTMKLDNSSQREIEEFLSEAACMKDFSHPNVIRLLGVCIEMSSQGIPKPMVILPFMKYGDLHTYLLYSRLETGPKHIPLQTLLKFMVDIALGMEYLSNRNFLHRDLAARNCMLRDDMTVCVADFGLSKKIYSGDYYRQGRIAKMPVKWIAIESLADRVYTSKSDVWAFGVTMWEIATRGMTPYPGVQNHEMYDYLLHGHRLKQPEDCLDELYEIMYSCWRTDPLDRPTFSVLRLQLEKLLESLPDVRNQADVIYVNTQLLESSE
# Method: (§1) Kinase activity and compound inhibition were investigated using the ^33P-Phosphoryl transfer radiometric kinase assay, performed using the KinaseProfiler™ service of Eurofins Pharma Discovery Services UK Limited. Dose-response experiments were performed using nine compound concentrations in a 96-well microtiter plate. For each assay, all compounds were prepared to a 50× final assay concentration (50 μM) in 100% DMSO, then diluted in a half-log series, with the final top concentration at 1 μM. This working stock of the compound was added to the assay well as the first component in the reaction, followed by the remaining components as detailed in the following assay protocols below. The positive control wells (100% kinase activity) contain all components of the reaction including 2% DMSO (control for solvent effects), except the compound of interest. Blank wells contain all components of the reaction, with the reference inhibitor, staurosporine. This reference compound was used to abolish kinase activity and generated the 0% kinase activity base-line. IC50 values were calculated by nonlinear regression analysis using the sigmoidal dose-response (variable slope) curve fit on XLFit version 5.3 (ID Business Solutions).
# (§2) Human Mer (residues R557-E882 with H628Q and R794A, 0.7 nM) was incubated with 8 mM MOPS pH 7.0, 0.2 mM EDTA, 30 mM NaCl, 250 μM GGMEDIYFEFMGGKKK, 10 mM magnesium acetate and 10 μM [y-^33P-ATP]. The reaction was initiated by the addition of the Mg/ATP mix. After incubation for 40 minutes at room temperature, the reaction was stopped by the addition of phosphoric acid to a concentration of 0.5%. A reaction aliquot of 10 μL was then spotted onto a P30 filtermat and washed four times for 4 minutes in 0.425% phosphoric acid and once in methanol prior to drying and scintillation counting. Incorporated ^33P was measured using the Wallac Microbeta scintillation counter (Perkin Elmer).
# KDR = KDR (Homo sapiens, UniProt P35968); experiment: Human KDR kinase assay (33P-phosphoryl transfer radiometric, KinaseProfiler); parameters: Human KDR (residues K790-V1356, 55 nM); purchased Eurofins Pharma Discovery Services UK Limited (KinaseProfiler service); settings: biochemical activity; 10 μM ATP
# Sequence of KDR (P35968 790-1356): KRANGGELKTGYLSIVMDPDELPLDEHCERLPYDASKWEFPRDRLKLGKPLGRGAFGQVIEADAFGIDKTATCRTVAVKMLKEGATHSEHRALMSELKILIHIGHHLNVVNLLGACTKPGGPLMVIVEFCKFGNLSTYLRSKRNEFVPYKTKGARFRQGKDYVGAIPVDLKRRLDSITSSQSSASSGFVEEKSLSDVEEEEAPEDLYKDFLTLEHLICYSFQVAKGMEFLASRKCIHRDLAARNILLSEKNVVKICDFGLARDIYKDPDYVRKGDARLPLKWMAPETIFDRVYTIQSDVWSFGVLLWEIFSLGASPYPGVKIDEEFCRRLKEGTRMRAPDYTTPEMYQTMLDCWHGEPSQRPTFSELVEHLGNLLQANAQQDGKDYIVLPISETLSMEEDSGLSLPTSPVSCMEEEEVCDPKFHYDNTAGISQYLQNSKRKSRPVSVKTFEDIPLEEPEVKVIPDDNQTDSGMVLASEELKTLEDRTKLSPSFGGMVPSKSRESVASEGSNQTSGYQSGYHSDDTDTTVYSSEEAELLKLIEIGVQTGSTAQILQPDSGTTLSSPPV
# Method: as §1
# as §2, with “KDR” for “Mer”, “K790-V1356, 55” for “R557-E882 with H628Q and R794A, 0.7”, “0.33 mg/mL myelin basic protein,” for “30 mM NaCl, 250 μM GGMEDIYFEFMGGKKK,”, “acetate,” for “acetate”, “[γ-^33P-ATP].” for “[y-^33P-ATP].”
# Met = Met (Homo sapiens, UniProt P08581); experiment: Human Met kinase assay (33P-phosphoryl transfer radiometric, KinaseProfiler); parameters: Human Met (residues R974-S1390 with A1209G and V1290L, 3.4 nM); purchased Eurofins Pharma Discovery Services UK Limited (KinaseProfiler service); settings: biochemical activity; 10 μM ATP; read-out: c-Met IC50
# Sequence of Met (P08581 974-1390): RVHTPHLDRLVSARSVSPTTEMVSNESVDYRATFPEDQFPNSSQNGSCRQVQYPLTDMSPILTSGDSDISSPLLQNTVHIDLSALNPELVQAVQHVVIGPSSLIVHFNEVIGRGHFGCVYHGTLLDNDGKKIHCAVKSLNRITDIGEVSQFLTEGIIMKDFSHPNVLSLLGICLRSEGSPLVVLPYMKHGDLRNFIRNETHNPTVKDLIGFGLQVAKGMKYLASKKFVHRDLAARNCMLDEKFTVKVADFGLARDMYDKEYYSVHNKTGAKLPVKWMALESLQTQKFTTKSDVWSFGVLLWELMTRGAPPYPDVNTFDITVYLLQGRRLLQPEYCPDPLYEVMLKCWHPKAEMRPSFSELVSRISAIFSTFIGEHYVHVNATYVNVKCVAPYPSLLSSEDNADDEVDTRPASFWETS
# Method: as §1
# Human Met (residues R974-S1390 with A1209G and V1290L, 3.4 nM) was incubated with 8 mM MOPS pH 7.0, 0.2 mM EDTA, 250 μM KKKGQEEEYVFIE, 1 mM sodium orthovanadate, 5 mM […], 10 mM magnesium acetate, and 10 μM [γ-^33P-ATP]. The reaction was initiated by the addition of the Mg/ATP mix. After incubation for 40 minutes at room temperature, the reaction was stopped by the addition of phosphoric acid to a concentration of 0.5%. A reaction aliquot of 10 μL was then spotted onto a P30 filtermat and washed four times for 4 minutes in 0.425% phosphoric acid and once in methanol prior to drying and scintillation counting. Incorporated ^33P was measured using the Wallac Microbeta scintillation counter (Perkin Elmer).
IC50 (Human Mer) [nM],IC50 (KDR) [nM],IC50 (Met) [nM],SMILES
≤ 10,10 to 100,≤ 10,"CNC(=O)c1cc2c(Oc3ccc(NC(=O)C4(C(=O)Nc5ccc(F)cc5)CC4)cc3)ccnc2cc1-c1cnn(C)c1 [Compound 77, 1-N′-(4-Fluorophenyl)-1-N-[4-[6-(methylcarbamoyl)-7-(1-methylpyrazol-4-yl)quinolin-4-yl]oxyphenyl]cyclopropane-1,1-dicarboxamide]"
≤ 10,10 to 100,≤ 10,"Cc1cc2c(Oc3ccc(NC(=O)C4(C(=O)Nc5ccc(F)cc5)CC4)cc3)ccnc2cc1-c1cnn(C)c1 [Compound 78, 1-N′-(4-Fluorophenyl)-1-N-[4-[6-methyl-7-(1-methylpyrazol-4-yl)quinolin-4-yl]oxyphenyl]cyclopropane-1,1-dicarboxamide]"
≤ 10,10 to 100,≤ 10,"CS(=O)(=O)n1cc(-c2ccc3c(Oc4ccc(NC(=O)C5(C(=O)Nc6ccc(F)cc6)CC5)cc4)ccnc3c2)cn1 [Compound 79, 1-N′-(4-Fluorophenyl)-1-N-[4-[7-(1-methylsulfonylpyrazol-4-yl)quinolin-4-yl]oxyphenyl]cyclopropane-1,1-dicarboxamide]"
100 to 1000,100 to 1000,10 to 100,"CC1Cc2cc(F)ccc2N1C(=O)C1(C(=O)Nc2ccc(Oc3ccnc4cc(-c5cnn(C)c5)ccc34)cc2)CC1 (stereo not drawn) [Compound 80, 1-(5-Fluoro-2-methyl-2,3-dihydroindole-1-carbonyl)-N-[4-[7-(1-methylpyrazol-4-yl)quinolin-4-yl]oxyphenyl]cyclopropane-1-carboxamide]"
10 to 100,10 to 100,≤ 10,"Cn1cc(-c2ccc3c(Oc4ccc(NC(=O)C5(C(=O)N6CCc7cc(F)ccc76)CC5)cc4)ccnc3c2)cn1 [Compound 81, 1-(5-Fluoro-2,3-dihydroindole-1-carbonyl)-N-[4-[7-(1-methylpyrazol-4-yl)quinolin-4-yl]oxyphenyl]cyclopropane-1-carboxamide]"
≤ 10,10 to 100,10 to 100,"Cc1cc(F)cc(C)c1NC(=O)C1(C(=O)Nc2ccc(Oc3ccnc4cc(-c5cnn(C)c5)ccc34)cc2)CC1 [Compound 82, 1-N′-(4-Fluoro-2,6-dimethylphenyl)-1-N-[4-[7-(1-methylpyrazol-4-yl)quinolin-4-yl]oxyphenyl]cyclopropane-1,1-dicarboxamide]"
100 to 1000,100 to 1000,100 to 1000,"CN(C(=O)C1(C(=O)Nc2ccc(Oc3ccnc4cc(-c5cnn(C)c5)ccc34)cc2)CC1)c1ccc(F)cc1 [Compound 82A, 1-N′-(4-Fluorophenyl)-1-N′-methyl-1-N-[4-[7-(1-methylpyrazol-4-yl)quinolin-4-yl]oxyphenyl]cyclopropane-1,1-dicarboxamide]"
≤ 10,10 to 100,≤ 10,"O=C(Nc1ccc(F)cc1)C1(C(=O)Nc2ccc(Oc3ccnc4cc(C5CCNC5)ccc34)cc2)CC1 (stereo not drawn) [Compound 83, 1-N′-(4-Fluorophenyl)-1-N-[4-(7-pyrrolidin-3-ylquinolin-4-yl)oxyphenyl]cyclopropane-1,1-dicarboxamide]"
≤ 10,10 to 100,10 to 100,"O=C(Nc1ccc(F)cc1)C1(C(=O)Nc2ccc(Oc3ccnc4cc(-c5ccn(C(F)F)n5)ccc34)cc2)CC1 [Compound 84, 1-N-[4-[7-[1-(Difluoromethyl)pyrazol-3-yl]quinolin-4-yl]oxyphenyl]-1-N′-(4-fluorophenyl)cyclopropane-1,1-dicarboxamide]"
≤ 10,10 to 100,10 to 100,"O=C(Nc1ccc(F)cc1)C1(C(=O)Nc2ccc(Oc3ccnc4cc(-c5ccccn5)ccc34)cc2)CC1 [Compound 85, 1-N′-(4-Fluorophenyl)-1-N-[4-(7-pyridin-2-ylquinolin-4-yl)oxyphenyl]cyclopropane-1,1-dicarboxamide]"
≤ 10,10 to 100,≤ 10,"Cn1ncc(-c2ccc3c(Oc4ccc(NC(=O)C5(C(=O)Nc6ccc(F)cc6)CC5)cc4)ccnc3c2)n1 [Compound 86, 1-N′-(4-Fluorophenyl)-1-N-[4-[7-(2-methyltriazol-4-yl)quinolin-4-yl]oxyphenyl]cyclopropane-1,1-dicarboxamide]"
